The subject of the assay is cellular histone deacetylase enzymatic activity in Jurkat E6-1 cells. Put plainly: Inhibition of cellular HDAC activity in Jurkat E6-1 cells, fluorogenic substrate Boc-Lys(Tfa)-AMC. It is filed as cell-based. The following applies: Homo sapiens, read-out: Cell IC50. An excerpt: Example 50: Analysis of Inhibition of Cellular HDAC Activity with Class IIa Histone Deacetylase (HDAC) Inhibitors
The potency of Class IIa Histone Deacetylase (HDAC) inhibitors is quantified by measuring the cellular histone deacetylase enzymatic activity using the fluorogenic substrate, Boc-Lys(Tfa)-AMC. After penetration in Jurkat E6-1 cells, the substrate is deacetylated to Boc-Lys-AMC. After cell lysis and cleavage by trypsin, the fluorophore AMC is released from the deacetylated substrate only. The fluorescence of the sample is directly related to the histone deacetylase activity in the sample.
Jurkat E6.1 cells are cultured according to standard cell culture protocols in Jurkat E6.1 Growth Media (RPMI without phenol red, 10% FBS, 10 mM HEPES, and 1 mM Sodium Pyruvate). Jurkat E6.1 cells are counted using a Coulter Counter and resuspended in Jurkat E6.1 growth media at a concentration of 75,000 cells/35 μl. 35 μl or 75,000 cells is seeded into Greiner microtitre assay plates. The plates are then incubated at 37° C. and 5% CO2 while other assay components are being prepared.
Serial dilutions of the HDAC inhibitors and control reference compound (1-(5-(3-((4-(1,3,4-oxadiazol-2-yl)phenoxy)methyl)-1,2,4-oxadiazol-5-yl)thiophen-2-yl)-2,2,2-trifluoroethanone) are made by first resuspending the lyophilized compound to a final concentration of 10 mM in 100% DMSO. Stocks of 70 μl aliquots of the 10 mM compound in DMSO are prepared and stored at −20° C. From one stock aliquot of each compound to be tested and the reference compound, a 16-point serial dilution is prepared according to Table 1 using a 125 μl 16-channel Matrix multi-channel pipette.
2 μl (200×) of each diluted solution and each control (full activity: 100% DMSO alone or full inhibition 1 mM) is stamped into V-bottom polypropylene 384-well compound plates using either the Bravo, Janus, or 12.5 μl 16-channel Matrix multi-channel pipette. Each well with the 200× compound solution is diluted 1:20 by the addition of 38 μl Jurkat assay buffer+DMSO (9.5% DMSO, RPMI without phenol red, 0.09% FBS, 9 mM Hepes, and 0.9 mM Sodium Pyruvate equilibrated to room temperature)
5× (500 μM) substrate is prepared just prior to the addition to the assay. The 5× substrate is prepared by diluting a 100 mM Boc-Lys(Tfa)-AMC in DMSO solution 1:200 by adding it drop-wise to Jurkat assay medium (RPMI without phenol red, 0.1% FBS, 10 mM Hepes, and 1 mM Sodium Pyruvate equilibrated to 37° C.) while vortexing at slow speed to prevent precipitation.
10 ml of 3× lysis buffer is prepared with 8.8 ml of 3× stock lysis buffer (50 mM Tris-HCl, pH 8.0, 137 mM NaCl, 2.7 mM KCl, 1 mM MgCl2, 1% Nonidet P40 Substitute equilibrated to room temperature) and 1.2 ml of 3 mg/ml Trypsin equilibrated to room temperature.
5 μl of each solution of 1:20 diluted compound from above is transferred to the Greiner microtitre assay plates with 75,000 cells/well using the Bravo. Cells are then incubated for 2 hours at 37° C. and 5% CO2. The assay is then started by adding 10 μl of 5× (500 μM) substrate to the assay plate using either the Bravo or 16-channel Matrix multi-channel pipette. The cells are then incubated for 3 hours at 37° C. and 5% CO2. Next, 25 μl of 3× lysis buffer is added to each well using either the 125 μl 16 channel pipette or the Bravo. The assay plate is then incubated overnight (15-16 hours) at 37° C. and 5% CO2. The following day, the plates are shaken on an orbital shaker for 1 minute at 900 rpm. Finally the top read fluorescence (Excitation: 355 nm, Emission: 460 nm) is measured using PerkinElmer EnVision.

For `Cc1c(F)cccc1[C@]1(C(=O)NO)C=C(c2ccccc2)CC1` [Example 1, (R)-1-(3-fluoro-2-methylphenyl)-N-hydroxy-3-phenylcyclopent-2-enecarboxamide], the IC50 – broadly, the point on the concentration scale where inhibition reaches its midpoint – is > 50000 nM.

As for `Cc1c(F)cccc1[C@@]1(C(=O)NO)C=C(c2ccccc2)CC1` [Example 2, (S)-1-(3-fluoro-2-methylphenyl)-N-hydroxy-3-phenylcyclopent-2-enecarboxamide], the IC50 amounted to 170 nM. The result for `Cc1ccccc1C1=C[C@@](C(=O)NO)(c2cccc(F)c2C)CC1` [Example 3, (R)-1-(3-fluoro-2-methyl-phenyl)-N-hydroxy-3-(o-tolyl)cyclopent-2-ene-1-carboxamide] reads 4600 nM. Regarding `Cc1ccccc1C1=C[C@](C(=O)NO)(c2cccc(F)c2C)CC1` [Example 4, (S)-1-(3-fluoro-2-methyl-phenyl)-N-hydroxy-3-(o-tolyl)cyclopent-2-ene-1-carboxamide], the IC50 was 360 nM.

`Cc1c(F)cccc1[C@]1(C(=O)NO)C=C(c2cncc(F)c2)CC1` [Example 5, (R)-1-(3-fluoro-2-methylphenyl)-3-(5-fluoropyridin-3-yl)-N-hydroxycyclopent-2-enecarboxamide]: the IC50 came to 6800 nM.

Take `Cc1c(F)cccc1[C@@]1(C(=O)NO)C=C(c2cncc(F)c2)CC1` [Example 6, (S)-1-(3-fluoro-2-methylphenyl)-3-(5-fluoropyridin-3-yl)-N-hydroxycyclopent-2-enecarboxamide]: the IC50 was found to be 160 nM. As for `Cc1c(F)cccc1[C@]1(C(=O)NO)C=C(c2cnccn2)CC1` [Example 7, (R)-1-(3-fluoro-2-methylphenyl)-N-hydroxy-3-(pyrazin-2-yl)cyclopent-2-ene carboxamide], the figure is > 50000 nM. The result for `Cc1c(F)cccc1[C@@]1(C(=O)NO)C=C(c2cnccn2)CC1` [Example 8, (S)-1-(3-fluoro-2-methylphenyl)-N-hydroxy-3-(pyrazin-2-yl)cyclopent-2-ene carboxamide] reads 15700 nM; that for `Cc1ncc(C2=C[C@@](C(=O)NO)(c3cccc(F)c3C)CC2)cn1` [Example 9, (R)-1-(3-fluoro-2-methylphenyl)-N-hydroxy-3-(2-methylpyrimidin-5-yl)cyclopent-2-enecarboxamide], > 50000 nM.

Regarding `Cc1c(F)cccc1[C@@]1(C(=O)NO)C=C(c2cncc(Cl)c2)CC1` [Example 11, (S)-3-(5-chloropyridin-3-yl)-1-(3-fluoro-2-methylphenyl)-N-hydroxycyclopent-2-enecarboxamide], the IC50 turned out to be 120 nM. With `Cc1c(F)cccc1[C@@]1(C(=O)NO)C=C(c2ccc3nccnc3c2)CC1` [Example 12, (S)-1-(3-fluoro-2-methylphenyl)-N-hydroxy-3-(quinoxalin-6-yl)cyclopent-2-enecarboxamide], the IC50 is 20 nM. As for `Cc1c(F)cccc1[C@@]1(C(=O)NO)C=C(c2ccnc(C(F)(F)F)c2)CC1` [Example 13, (S)-1-(3-fluoro-2-methylphenyl)-N-hydroxy-3-(2-(trifluoromethyl)pyridin-4-yl)cyclopent-2-enecarboxamide], the figure is 270 nM. The result for `Cc1c(F)cccc1[C@@]1(C(=O)NO)C=C(c2cncnc2)CC1` [Example 14, (S)-1-(3-fluoro-2-methylphenyl)-N-hydroxy-3-(pyrimidin-5-yl)cyclopent-2-enecarboxamide] reads 360 nM; that for `Cc1c(F)cccc1[C@@]1(C(=O)NO)C=C(c2ccc(F)cn2)CC1` [Example 15, (S)-1-(3-fluoro-2-methylphenyl)-3-(5-fluoropyridin-2-yl)-N-hydroxycyclopent-2-enecarboxamide], 310 nM.

Take `Cc1c(F)cccc1[C@@]1(C(=O)NO)C=C(c2ccc(C(F)(F)F)nc2)CC1` [Example 16, (S)-1-(3-fluoro-2-methylphenyl)-N-hydroxy-3-(6-(trifluoromethyl)pyridin-3-yl)cyclopent-2-enecarboxamide]: the IC50 was 100 nM. As for `Cc1c(F)cccc1[C@@]1(C(=O)NO)C=C(c2cncc(C(F)(F)F)c2)CC1` [Example 17, (S)-1-(3-fluoro-2-methylphenyl)-N-hydroxy-3-(5-(trifluoromethyl)pyridin-3-yl)cyclopent-2-enecarboxamide], the figure is 200 nM; as for `Cc1c(F)cccc1[C@@]1(C(=O)NO)C=C(c2cnn(C(F)F)c2)CC1` [Example 18, (S)-3-(1-(difluoromethyl)-1H-pyrazol-4-yl)-1-(3-fluoro-2-methylphenyl)-N-hydroxycyclopent-2-enecarboxamide], 160 nM; as for `Cc1c(F)cccc1[C@@]1(C(=O)NO)C=C(c2cc(F)cnc2C2CC2)CC1` [Example 19, (S)-3-(2-cyclopropyl-5-fluoropyridin-3-yl)-1-(3-fluoro-2-methylphenyl)-N-hydroxycyclopent-2-enecarboxamide], 500 nM. With `Cc1c(F)cccc1[C@@]1(C(=O)NO)C=C(c2ccc3nc(C(F)(F)F)cnc3c2)CC1` [Example 20, (S)-1-(3-fluoro-2-methylphenyl)-N-hydroxy-3-(2-(trifluoromethyl)quinoxalin-6-yl)cyclopent-2-enecarboxamide], the IC50 amounted to 140 nM.

In the case of `Cc1c(F)cccc1[C@@]1(C(=O)NO)C=C(c2ccn3ccnc3c2)CC1` [Example 21, (S)-1-(3-fluoro-2-methylphenyl)-N-hydroxy-3-(imidazo[1,2-a]pyridin-7-yl)cyclopent-2-enecarboxamide], the IC50 was 60 nM. As for `Cc1c(F)cccc1[C@@]1(C(=O)NO)C=C(c2ccc3onc(C)c3c2)CC1` [Example 22, (S)-1-(3-fluoro-2-methylphenyl)-N-hydroxy-3-(3-methylbenzo[d]isoxazol-5-yl)cyclopent-2-enecarboxamide], the figure is 60 nM; as for `COc1ncc(C2=C[C@](C(=O)NO)(c3cccc(F)c3C)CC2)cc1F` [Example 23, (S)-1-(3-fluoro-2-methylphenyl)-3-(5-fluoro-6-methoxypyridin-3-yl)-N-hydroxycyclopent-2-enecarboxamide], 220 nM. As for `Cc1c(F)cccc1[C@@]1(C(=O)NO)C=C(c2cnc(C3CC3)nc2)CC1` [Example 24, (S)-3-(2-cyclopropylpyrimidin-5-yl)-1-(3-fluoro-2-methylphenyl)-N-hydroxycyclopent-2-enecarboxamide], the figure is 80 nM; as for `Cc1ccc(C2=C[C@](C(=O)NO)(c3cccc(F)c3C)CC2)cn1` [Example 25, (S)-1-(3-fluoro-2-methylphenyl)-N-hydroxy-3-(6-methylpyridin-3-yl)cyclopent-2-enecarboxamide], 120 nM. The result for `Cc1ncc(C2=C[C@](C(=O)NO)(c3cccc(F)c3C)CC2)cc1Cl` [Example 26, (S)-3-(5-chloro-6-methylpyridin-3-yl)-1-(3-fluoro-2-methylphenyl)-N-hydroxycyclopent-2-enecarboxamide] reads 80 nM; that for `Cc1c(F)cccc1[C@@]1(C(=O)NO)C=C(c2ccnn2C)CC1` [Example 27, (S)-1-(3-fluoro-2-methylphenyl)-N-hydroxy-3-(1-methyl-1H-pyrazol-5-yl)cyclopent-2-enecarboxamide], 330 nM; that for `Cc1c(F)cccc1[C@@]1(C(=O)NO)C=C(c2cnn(CC(F)(F)F)c2)CC1` [Example 28, (S)-1-(3-fluoro-2-methylphenyl)-N-hydroxy-3-(1-(2,2,2-trifluoroethyl)-1H-pyrazol-4-yl)cyclopent-2-enecarboxamide], 160 nM. As for `Cc1c(F)cccc1[C@@]1(C(=O)NO)C=C(c2cccc3cnsc23)CC1` [Example 29, (S)-3-(benzo[d]isothiazol-7-yl)-1-(3-fluoro-2-methylphenyl)-N-hydroxycyclopent-2-enecarboxamide], the concentration for half-maximal inhibition (IC50) was 200 nM.
